Entries after “also recorded” stand apart in the source; their conditions may differ. Like-named read-outs stand apart in the source and are kept apart here.
What was measured:
human P2Y6 receptors = human P2Y6 receptors (Homo sapiens, UniProt Q15077); assay: Effect on human P2Y6 receptors; conditions: data not shown
[1] = system: ADP induced human platelet aggregation; assay: ADP induced human platelet aggregation by optical aggregometry; assay type: cell-based; conditions: 25 and 100 nM; pre-incubation 0, 5, 15 min; data not shown
platelet P2X1 receptors = molecular target: T1, platelet P2X1 receptors (Homo sapiens, UniProt P51575); assay: P2X1-mediated entry of extracellular Ca2+; assay type: cell-based
T1 sequence (P51575 1-399): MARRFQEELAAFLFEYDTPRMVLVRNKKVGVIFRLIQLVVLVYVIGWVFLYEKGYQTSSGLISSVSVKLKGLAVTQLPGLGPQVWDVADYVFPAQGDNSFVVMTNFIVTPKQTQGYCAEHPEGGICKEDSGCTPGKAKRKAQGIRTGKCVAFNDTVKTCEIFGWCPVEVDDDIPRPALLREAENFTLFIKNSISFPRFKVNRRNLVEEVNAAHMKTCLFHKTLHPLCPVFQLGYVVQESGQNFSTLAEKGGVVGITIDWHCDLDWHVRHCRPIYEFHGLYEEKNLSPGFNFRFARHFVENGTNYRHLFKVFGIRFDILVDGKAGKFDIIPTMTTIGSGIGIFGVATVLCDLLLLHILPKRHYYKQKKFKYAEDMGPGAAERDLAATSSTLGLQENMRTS

human P2Y2 receptors = human P2Y2 receptors (Homo sapiens, UniProt P41231); assay: Effect on human P2Y2 receptors; conditions: data not shown
Chain of human P2Y2 receptors (P41231 whole entry): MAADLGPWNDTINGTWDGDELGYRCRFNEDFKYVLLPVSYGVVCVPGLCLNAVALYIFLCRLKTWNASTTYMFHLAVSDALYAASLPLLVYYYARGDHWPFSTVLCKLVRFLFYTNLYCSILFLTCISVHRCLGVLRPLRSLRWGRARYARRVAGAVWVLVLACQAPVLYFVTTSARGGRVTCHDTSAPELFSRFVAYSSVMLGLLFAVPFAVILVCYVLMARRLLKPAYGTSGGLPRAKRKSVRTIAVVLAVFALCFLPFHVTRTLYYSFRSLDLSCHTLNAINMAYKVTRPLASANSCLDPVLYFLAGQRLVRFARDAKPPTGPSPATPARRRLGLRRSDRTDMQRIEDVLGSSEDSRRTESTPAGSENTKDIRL

[2] = system: ADP induced human platelet aggregation; assay: ADP-induced human platelet aggregation, 96-well microplate method; assay type: cell-based
human P2Y4 receptors = human P2Y4 receptors (Homo sapiens, UniProt P51582); assay: Effect on human P2Y4 receptors; conditions: data not shown
Chain of human P2Y4 receptors (P51582 whole entry): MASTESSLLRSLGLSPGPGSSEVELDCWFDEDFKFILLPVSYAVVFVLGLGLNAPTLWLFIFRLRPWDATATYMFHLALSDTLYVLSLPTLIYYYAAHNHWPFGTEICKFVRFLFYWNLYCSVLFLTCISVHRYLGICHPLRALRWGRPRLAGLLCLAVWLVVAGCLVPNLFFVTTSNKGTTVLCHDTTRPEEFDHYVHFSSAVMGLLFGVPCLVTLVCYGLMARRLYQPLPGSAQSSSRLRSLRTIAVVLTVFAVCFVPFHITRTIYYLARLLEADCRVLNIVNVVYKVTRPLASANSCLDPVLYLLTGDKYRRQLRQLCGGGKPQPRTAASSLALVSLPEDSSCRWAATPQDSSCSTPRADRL

[3] = system: GPIIb-IIIa and P-selectin on the surface of human platelets; assay: Reversibility of inhibition of activation marker expression after dilution; assay type: cell-based; conditions: 30 min with 10 nM, then 100x dilution with platelet poor plasma; 20 μM ADP
[4] = molecular target: human platelet P2Y1 receptors (Homo sapiens, UniProt P47900); conditions: 3 μM ADP; human whole blood; N=3 unless stated
Chain of human platelet P2Y1 receptors (P47900 whole entry): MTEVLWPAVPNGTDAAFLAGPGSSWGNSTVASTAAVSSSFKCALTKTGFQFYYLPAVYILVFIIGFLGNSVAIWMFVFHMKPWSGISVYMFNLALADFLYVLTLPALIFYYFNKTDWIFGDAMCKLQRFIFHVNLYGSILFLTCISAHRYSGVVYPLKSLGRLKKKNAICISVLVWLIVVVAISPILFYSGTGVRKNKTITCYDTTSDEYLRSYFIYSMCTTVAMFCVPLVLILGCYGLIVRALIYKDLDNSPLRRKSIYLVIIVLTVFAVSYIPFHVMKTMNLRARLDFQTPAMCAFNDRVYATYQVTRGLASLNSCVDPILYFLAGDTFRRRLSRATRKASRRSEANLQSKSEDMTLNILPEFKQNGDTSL

Chain of human P2Y6 receptors (Q15077 whole entry): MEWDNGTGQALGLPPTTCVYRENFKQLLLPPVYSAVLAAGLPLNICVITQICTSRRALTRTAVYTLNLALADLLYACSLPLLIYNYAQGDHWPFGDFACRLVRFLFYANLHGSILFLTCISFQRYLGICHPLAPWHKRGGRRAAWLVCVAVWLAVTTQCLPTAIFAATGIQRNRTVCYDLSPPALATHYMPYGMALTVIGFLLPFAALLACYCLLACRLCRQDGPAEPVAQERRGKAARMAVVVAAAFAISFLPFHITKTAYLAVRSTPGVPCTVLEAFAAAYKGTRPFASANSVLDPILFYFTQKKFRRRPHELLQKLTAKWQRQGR

Row | P2Y1 inhibition IC50±SEM [4] | Structure (SMILES) | Effect on human P2Y6 receptors (human P2Y6 receptors) | Pre-incubation time for full pre-incubation effect [1] [min] | P2X1 agonist activity (platelet P2X1 receptors) | Effect on human P2Y2 receptors (human P2Y2 receptors) | IC50 ([2]; read-out: IC50, nM (95% Confidence Interval), no pre-incubation, 3 μM ADP) [nM] | IC50 ([2]; read-out: IC50, nM (95% Confidence Interval), pre-incubation with test compound, 5 μM ADP) [nM] | IC50 ([2]; read-out: IC50, nM (95% Confidence Interval), pre-incubation with test compound, 20 μM ADP) [nM] | Effect on human P2Y4 receptors (human P2Y4 receptors) | Recovery of ability to express the activation markers after dilution [3]
1 |  | CSc1nc(N)c2ncn([C@@H]3O[C@H](COP(=O)([S-])OP(=O)([O-])C(Cl)P(=O)([O-])OP(=O)([S-])OC[C@H]4O[C@@H](n5cnc6c(N)nc(SC)nc65)[C@H](O)[C@@H]4O)[C@@H](O)[C@H]3O)c2n1.[Na+].[Na+].[Na+].[Na+] (mixture of isomers) [Compound 5, P^1,P^4-di-(2-methylthio-5′-adenosine) P^1,P^4-dithio-P^2,P^3-chloromethylenetetraphosphate] | did not have an effect | ≤ 15 | practically devoid of agonist activity; also recorded: did not have an effect | did not have an effect | 36.1 | 11.6 | 27.6 | did not have an effect | 80–90%
2 | Not inhibitor | CSCCNc1nc(SCCC(F)(F)F)nc2c1ncn2[C@@H]1O[C@H](COP(=O)(O)OP(=O)(O)C(Cl)(Cl)P(=O)(O)O)[C@@H](O)[C@H]1O [Cangrelor] |  |  |  |  |  |  |  |  | 
